Where a name gives a salt, the structure may show the parent alone. Read-outs that look alike come from different tables or passages of the source.
Legend:
Type in all cases: cell-based
K562 cells = assay: Cell Titer Glo 2.0 cell viability assay; details: Homo sapiens, 500 cells/well, 72 hours
In short: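 K562 cells (500/well) in IMDM with 10% FBS were exposed to serially diluted compounds at 0.1% DMSO final. After 72 h at 37° C, 5% CO2, viability was read by CellTiter-Glo 2.0 luminescence, with medium-only blanks.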

MYB mRNA = assay: RT-qPCR splicing assay, MYB canonical (CJ) and alternative (AJ) junction mRNA; details: Homo sapiens; for IC50: read-out: MYB CJ IC50; for AC50: read-out: MYB AJ AC50
In short: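 Splice-junction mRNAs (CJ, AJ) measured by TaqMan one-step RT-qPCR on cell lysates, using PPIA as reference for adherent A673 and GAPDH or GUSB for K562. Cells exposed for 24 h to 11 threefold concentrations up to 10 uM final, with DMSO at or below 0.25%.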

SMN2 mRNA = assay: RT-qPCR splicing assay, gene panel, SMN2 canonical junction (CJ) mRNA; details: Homo sapiens, read-out: SMN2 CJ IC50
In short: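 A673 (DMEM/10% FBS) or K562 (IMDM/10% FBS) cells were treated 24 h at 37 °C with an 11-point 3-fold dilution series, top final 10 uM, DMSO ≤0.25%. Lysates underwent one-step RT-qPCR for the canonical-junction isoform with GAPDH, GUSB or PPIA as housekeeper. ΔΔCt versus DMSO was converted to RQ (2^−ΔΔCt), then to percent response.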

[1] = decrease in CJ mRNA levels, larger panel of genes, Table 3
[2] = decrease in canonical junction mRNA, A673 or K562 cells, 24 hours treatment, Table 2
[3] = increase in alternative junction mRNA, A673 or K562 cells, 24 hours treatment, Table 2

SMILES	GI50 (K562 cells)	IC50 (MYB mRNA; [1])	IC50 (MYB mRNA; [2])	AC50 (MYB mRNA; [3])	IC50 (SMN2 mRNA; [1])	AC50 (MYB mRNA; 24 h)	IC50 (MYB mRNA; 24 h)	IC50 (MYB mRNA)	IC50 (SMN2 mRNA)
Cc1cn2cc(-c3cc(F)c4nn(C5CCNCC5)cc4c3)nc(C)c2n1 [Compound 132, 6-[7-fluoro-2-(4-piperidyl)indazol-5-yl]-2,8-dimethyl-imidazo[1,2-a]pyrazine]	1000 to 10000 nM	1000 to 10000 nM	1000 to 10000 nM	1000 to 10000 nM	100 to 1000 nM				
Cc1cn2nc(-c3cc(F)c4nn([C@H]5CCNC[C@@H]5F)cc4c3)cc(C)c2n1 [Compound 167, 6-(7-fluoro-2-((3S,4S)-3-fluoropiperidin-4-yl)-2H-indazol-5-yl)-2,8-dimethylimidazo[1,2-b]pyridazine]	1000 to 10000 nM	1000 to 10000 nM	1000 to 10000 nM	1000 to 10000 nM	< 100 nM				
Cn1cc2cc(-c3cc(F)c4nn(C5CCNCC5)cc4c3)cc(C#N)c2n1 [Compound 130, 5-[7-fluoro-2-(4-piperidyl)indazol-5-yl]-2-methyl-indazole-7-carbonitrile]	100 to 1000 nM	100 to 1000 nM	100 to 1000 nM	100 to 1000 nM	< 100 nM				
Cn1cc2cc(-c3ccc4cn(C5CCNCC5)nc4c3)cc(F)c2n1 [Compound 148, 7-fluoro-2-methyl-5-[2-(4-piperidyl)indazol-6-yl]indazole]	> 10000 nM	> 10000 nM	> 10000 nM	> 10000 nM	1000 to 10000 nM				
Cc1cn2nc(-c3cc(F)c4nn([C@H]5CCNC6(CC6)C5)cc4c3)cc(C)c2n1 [Compound 172]	100 to 1000 nM	< 100 nM	< 100 nM	< 100 nM	< 100 nM				
Cc1cn2nc(-c3cc(F)c4nn(C5CCN(CC6CC6)C6(CC6)C5)cc4c3)cc(C)c2n1 (stereo not shown) [Compound 183, 6-[2-[4-(cyclopropylmethyl)-4-azaspiro[2.5]octan-7-yl]-7-fluoro-indazol-5-yl]-2,8-dimethyl-imidazo[1,2-b]pyridazine]	100 to 1000 nM	100 to 1000 nM	100 to 1000 nM	100 to 1000 nM	< 100 nM				
Cc1ccc2cc(-c3cc(F)c4nn(C5CCNCC5)cc4c3)ccc2n1 [Compound 163, 6-[7-fluoro-2-(4-piperidyl)indazol-5-yl]-2-methyl-quinoline]	1000 to 10000 nM	> 10000 nM	> 10000 nM	> 10000 nM	1000 to 10000 nM				
Cc1cn2nc(-c3cc(F)c4nn(C5CCNCC5)cc4c3)cc(C)c2n1 [Compound 122, 6-(7-fluoro-2-(piperidin-4-yl)-2H-indazol-5-yl)-2,8-dimethylimidazo [1,2-b]pyridazine hydrochloride salt]	< 100 nM					< 100 nM	< 100 nM	< 100 nM	< 100 nM
Cc1nc2ccc(-c3cc(F)c4nn(C5CCNCC5)cc4c3)cc2s1 [Compound 134, 6-(7-fluoro-2-(piperidin-4-yl)-2H-indazol-5-yl)-2-methylbenzo[d]thiazole]	1000 to 10000 nM	1000 to 10000 nM	1000 to 10000 nM	> 10000 nM	100 to 1000 nM				
Cc1cn2nc(-c3cc(F)c4nn(CC5CCNCC5)cc4c3)cc(C)c2n1 [Compound 212, 6-[7-fluoro-2-(4-piperidylmethyl)indazol-5-yl]-2,8-dimethyl-imidazo[1,2-b]pyridazine]	100 to 1000 nM	100 to 1000 nM	100 to 1000 nM	100 to 1000 nM	< 100 nM				
Cc1cn2nc(-c3cc(F)c4nn(C5CCNC6(CCC6)C5)cc4c3)cc(C)c2n1 (stereo not shown) [Compound 189, 6-[2-(5-azaspiro[3.5]nonan-8-yl)-7-fluoro-indazol-5-yl]-2,8-dimethyl-imidazo[1,2-b]pyridazine]	100 to 1000 nM	100 to 1000 nM	100 to 1000 nM	100 to 1000 nM	< 100 nM				
COc1cc(-c2cc3cn(C)nc3cc2O)nc2cn(C3CCNCC3)nc12 [Compound 140, 5-[7-methoxy-2-(4-piperidyl)pyrazolo[4,3-b]pyridin-5-yl]-2-methyl-indazol-6-ol]	> 10000 nM	1000 to 10000 nM	1000 to 10000 nM	1000 to 10000 nM	100 to 1000 nM				
CCN1CCC(n2cc3cc(-c4cc(C)c5nc(C)cn5n4)cc(F)c3n2)CC1 [Compound 146, 6-[2-(1-ethyl-4-piperidyl)-7-fluoro-indazol-5-yl]-2,8-dimethyl-imidazo[1,2-b]pyridazine]	100 to 1000 nM	100 to 1000 nM	100 to 1000 nM	100 to 1000 nM	< 100 nM				
Cc1cn2nc(-c3cc(F)c4nn(C5CCN(CCO)C6(CC6)C5)cc4c3)cc(C)c2n1 (stereo not shown) [Compound 180, 2-[7-[5-(2,8-dimethylimidazo[1,2-b]pyridazin-6-yl)-7-fluoro-indazol-2-yl]-4-azaspiro[2.5]octan-4-yl]ethanol]	100 to 1000 nM					100 to 1000 nM	100 to 1000 nM	100 to 1000 nM	< 100 nM
Cc1nc2ccc(-c3cc(F)c4nn(C5CCNCC5)cc4c3)cc2o1 [Compound 135, 6-[7-fluoro-2-(4-piperidyl)indazol-5-yl]-2-methyl-1,3-benzoxazole]	100 to 1000 nM	100 to 1000 nM	100 to 1000 nM	100 to 1000 nM	< 100 nM				
Cc1cn2nc(-c3cc4cn(C5CCNCC5)nc4cc3O)cc(C)c2n1 [Compound 154, 5-(2,8-dimethylimidazo[1,2-b]pyridazin-6-yl)-2-(piperidin-4-yl)-2H-indazol-6-ol]	100 to 1000 nM	100 to 1000 nM	100 to 1000 nM	100 to 1000 nM	< 100 nM				
Cc1cn2cc(-c3cc(F)c4nn(C5CCNCC5)cc4c3)cc(C)c2n1 [Compound 125, 5-(2,8-dimethylimidazo[1,2-a]pyridin-6-yl)-7-fluoro-2-(4-piperidyl)indazole]	100 to 1000 nM	100 to 1000 nM	100 to 1000 nM	100 to 1000 nM	< 100 nM				
Cc1cn2nc(-c3cc4cn(C5CCNCC5)nc4cn3)cc(C)c2n1 [Compound 147, 2,8-dimethyl-6-[2-(4-piperidyl)pyrazolo[3,4-c]pyridin-5-yl]imidazo[1,2-b]pyridazine]	100 to 1000 nM	100 to 1000 nM	100 to 1000 nM	100 to 1000 nM	100 to 1000 nM				
Fc1cc(-c2ccc3ccncc3c2)cc2cn(C3CCNCC3)nc12 [Compound 158, 7-[7-fluoro-2-(4-piperidyl)indazol-5-yl]isoquinoline]	1000 to 10000 nM	> 10000 nM	> 10000 nM	> 10000 nM	1000 to 10000 nM				
Cc1cn2nc(-c3cc(F)c4nn(C5CCN(CC6CC6)CC5)cc4c3)cc(C)c2n1 [Compound 149, 6-[2-[1-(cyclopropylmethyl)-4-piperidyl]-7-fluoro-indazol-5-yl]-2,8-dimethyl-imidazo[1,2-b]pyridazine]	< 100 nM	100 to 1000 nM	100 to 1000 nM	100 to 1000 nM	< 100 nM				
Cc1cn2nc(-c3cc(F)c4nn(C5CCN(C)C6(CC6)C5)cc4c3)cc(C)c2n1 (stereo not shown) [Compound 174, 6-[7-fluoro-2-(4-methyl-4-azaspiro[2.5]octan-7-yl)indazol-5-yl]-2,8-dimethyl-imidazo[1,2-b]pyridazine]	100 to 1000 nM	100 to 1000 nM	100 to 1000 nM	100 to 1000 nM	< 100 nM				
Cc1cc(-n2cc3cc(N4CCNCC4)cc(F)c3n2)cc2cn(C)nc12 [Compound 117, 2-(2,7-dimethylindazol-5-yl)-7-fluoro-5-piperazin-1-yl-indazole]	1000 to 10000 nM	> 10000 nM	> 10000 nM	1000 to 10000 nM	100 to 1000 nM				
Cc1c(O)c(-c2ccc3nn(C4CCNCC4)nc3n2)cc2cn(C)nc12 [Compound 113, 2,7-dimethyl-5-[2-(4-piperidyl)triazolo[4,5-b]pyridin-5-yl]indazol-6-ol]	1000 to 10000 nM	> 10000 nM	> 10000 nM	> 10000 nM	1000 to 10000 nM				
Cc1cc(-n2cc3cc(N4CCNCC4)ccc3n2)cc2cn(C)nc12 [Compound 121, 2,7-dimethyl-5-(5-piperazin-1-ylindazol-2-yl)indazole]	1000 to 10000 nM	> 10000 nM	> 10000 nM	> 10000 nM	1000 to 10000 nM				
Cn1cc2cc(-c3ccc4nn(C5CCNCC5)cc4n3)c(O)cc2n1 [Compound 110, 2-methyl-5-[2-(4-piperidyl)pyrazolo[4,3-b]pyridin-5-yl]indazol-6-ol]	1000 to 10000 nM	100 to 1000 nM	100 to 1000 nM	100 to 1000 nM	< 100 nM				
Cc1cc(-n2cc3cc(C4CCNCC4)cc(F)c3n2)cc2cn(C)nc12 [Compound 115, 2-(2,7-dimethylindazol-5-yl)-7-fluoro-5-(4-piperidyl)indazole]	1000 to 10000 nM	> 10000 nM	> 10000 nM	1000 to 10000 nM	100 to 1000 nM				
